# Source: patent publication US7608619B2, “Substituted oxazole compounds with analgesic activity” (Gruenenthal GmbH, priority 2005, dated 2009)
# Molecular target: T1, human μ-opiate receptor (Homo sapiens, UniProt P35372)
# T1 construct: purchased Nen company, Zaventem, Belgium RB-HOM; host or cells: CHO-K1 cells (membrane preparation)
# Assay: Affinity for the human μ-opiate receptor ([3H]-naloxone displacement, SPA, CHO-K1 membrane preparation)
# Settings: test substance 1 μmole/l; displacement of 1 nmole/l [3H]-naloxone; percentage inhibition of the specific binding; read-out: μ-opioid receptor, % inhibition [1 μM]
# Outline: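 [3H]-naloxone (1 nmol/l) displacement by SPA with WGA beads, using membranes of CHO-K1 cells expressing the receptor, in 50 mmol/l Tris-HCl with 0.05% azide and 0.06% BSA; 90 min at room temperature. Non-specific binding defined with 25 μmol/l naloxone. Value is % inhibition of specific binding at 1 μmol/l test compound.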
# T1 sequence (P35372 whole entry): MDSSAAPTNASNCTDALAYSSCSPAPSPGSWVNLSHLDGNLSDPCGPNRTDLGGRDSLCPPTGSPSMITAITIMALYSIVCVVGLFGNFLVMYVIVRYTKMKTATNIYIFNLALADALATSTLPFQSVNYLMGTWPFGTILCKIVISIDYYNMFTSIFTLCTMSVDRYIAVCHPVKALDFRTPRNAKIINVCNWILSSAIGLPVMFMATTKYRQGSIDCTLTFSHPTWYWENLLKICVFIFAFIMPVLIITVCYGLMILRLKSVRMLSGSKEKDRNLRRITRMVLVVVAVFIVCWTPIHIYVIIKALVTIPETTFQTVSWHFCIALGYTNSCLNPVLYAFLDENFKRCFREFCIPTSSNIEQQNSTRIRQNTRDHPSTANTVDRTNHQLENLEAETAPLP
row,Structure (SMILES),inhibition at 1 µM [%]
1,"COc1ccc(N2CCN(C(CC3CCC(C(c4cccc(F)c4)N(C)C)CC3)c3nc(Cc4ccccc4)c(N4CC(C)OC(C)C4)o3)CC2)cc1 (centres unmarked) [compound 156, [(4-{2-[4-benzyl-5-(2,6-dimethylmorpholin-4-yl)-oxazol-2-yl]-2-[4-(4-methoxyphenyl)-piperazin-1-yl]-ethyl}-cyclohexyl)-(3-fluorophenyl)-methyl]-dimethylamine]",74
2,"COc1ccc(N2CCN(c3oc(C(CC4CCC(C(c5cccc(F)c5)N(C)C)CC4)N4CCc5ccccc5C4)nc3Cc3ccccc3)CC2)cc1 (centres unmarked) [compound 157, [{4-[2-{4-benzyl-5-[4-(4-methoxy-phenyl)-piperazin-1-yl]-oxazol-2-yl}-2-(3,4-dihydro-1H-isoquinolin-2-yl)-ethyl]-cyclohexyl}-(3-fluorophenyl)-methyl]-dimethylamine]",84
3,"CN(C)C(c1cccs1)C1CCC(CC(c2nc(Cc3ccccc3)c(N3CCOCC3)o2)N2CCOCC2)CC1 (centres unmarked) [compound 158, ({4-[2-(4-benzyl-5-morpholin-4-yl-oxazol-2-yl)-2-morpholin-4-yl-ethyl]-cyclohexyl}-thiophen-2-yl-methyl)-dimethylamine]",83
4,"COc1ccc(N2CCN(c3oc(C(CC4CCC(C(c5cccs5)N(C)C)CC4)N4CCOCC4)nc3Cc3ccccc3)CC2)cc1 (centres unmarked) [compound 159, {[4-(2-{4-benzyl-5-[4-(4-methoxyphenyl)-piperazin-1-yl]-oxazol-2-yl}-2-morpholin-4-yl-ethyl)-cyclohexyl]-thiophen-2-yl-methyl}-dimethylamine]",94
5,"CC1CN(c2oc(C(CC3CCC(C(c4cccs4)N(C)C)CC3)N3CCOCC3)nc2Cc2ccccc2)CC(C)O1 (centres unmarked) [compound 160, [(4-{2-[4-benzyl-5-(2,6-dimethyl-morpholin-4-yl)-oxazol-2-yl]-2-morpholin-4-yl-ethyl}-cyclohexyl)-thiophen-2-yl-methyl]-dimethylamine]",79
6,"CN(C)C(c1cccs1)C1CCC(CC(c2nc(Cc3ccccc3)c(N3CCOCC3)o2)N2CCN(c3ccc(F)cc3)CC2)CC1 (centres unmarked) [compound 161, [(4-{2-(4-benzyl-5-morpholin-4-yl-oxazol-2-yl)-2-[4-(4-fluorophenyl)-piperazin-1-yl]-ethyl}-cyclohexyl)-thiophen-2-yl-methyl]-dimethylamine]",87
7,"COc1ccc(N2CCN(c3oc(C(CC4CCC(C(c5cccs5)N(C)C)CC4)N4CCN(c5ccc(F)cc5)CC4)nc3Cc3ccccc3)CC2)cc1 (centres unmarked) [compound 162, [(4-{2-{4-benzyl-5-[4-(4-methoxy-phenyl)-piperazin-1-yl]-oxazol-2-yl}-2-[4-(4-fluorophenyl)-piperazin-1-yl]-ethyl}-cyclohexyl)-thiophen-2-yl-methyl]-dimethylamine]",96
8,"COc1ccc(N2CCN(C(CC3CCC(C(c4cccs4)N(C)C)CC3)c3nc(Cc4ccccc4)c(N4CCCC4)o3)CC2)cc1 (centres unmarked) [compound 163, [(4-{2-(4-benzyl-5-pyrrolidin-1-yl-oxazol-2-yl)-2-[4-(4-methoxyphenyl)-piperazin-1-yl]-ethyl}-cyclohexyl)-thiophen-2-yl-methyl]-dimethylamine]",83
9,"COc1ccc(N2CCN(c3oc(C(CC4CCC(C(c5cccs5)N(C)C)CC4)N4CCN(c5ccc(OC)cc5)CC4)nc3Cc3ccccc3)CC2)cc1 (centres unmarked) [compound 164, [(4-{2-{4-benzyl-5-[4-(4-methoxyphenyl)-piperazin-1-yl]-oxazol-2-yl}-2-[4-(4-methoxyphenyl)-piperazin-1-yl]-ethyl}-cyclohexyl)-thiophen-2-yl-methyl]-dimethylamine]",93
10,"COc1ccc(N2CCN(C(CC3CCC(C(c4cccs4)N(C)C)CC3)c3nc(Cc4ccccc4)c(N4CC(C)OC(C)C4)o3)CC2)cc1 (centres unmarked) [compound 165, [(4-{2-[4-benzyl-5-(2,6-dimethyl-morpholin-4-yl)-oxazol-2-yl]-2-[4-(4-methoxyphenyl)-piperazin-1-yl]-ethyl}-cyclohexyl)-thiophen-2-yl-methyl]-dimethylamine]",93
11,"COc1ccc(N2CCN(c3oc(C(CC4CCC(C(c5cccs5)N(C)C)CC4)N4CCc5ccccc5C4)nc3Cc3ccccc3)CC2)cc1 (centres unmarked) [compound 166, ({4-[2-{4-benzyl-5-[4-(4-methoxy-phenyl)-piperazin-1-yl]-oxazol-2-yl}-2-(3,4-dihydro-1H-isoquinolin-2-yl)-ethyl]-cyclohexyl}-thiophen-2-yl-methyl)-dimethylamine]",78
